Our source for the EC50 values is patent US20240101546A1, “HETEROARYL-ACETYLENES, PHARMACEUTICAL COMPOSITIONS THEREOF, AND THEIR THERAPEUTIC APPLICATIONS” (Eubulus Biotherapeutics Inc., priority 2020, published 2024).

The assay concerns lung cancer cell line NCI-H82. Description: Cell proliferation assay, NCI-H82 (CELL-TITER GLO). Type of assay: cell-based. Conditions: Homo sapiens, NCI-H82, 72 h, NCI-H82 cells, 72 h incubation, cell viability by CELL-TITER GLO, top concentration 1 μM; read-out: EC50, Inhibition of NCl-H82 Cell Proliferation. The essentials:
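NCI-H82 cells, 1,000 per well in RPMI1640, were treated after overnight plating with a 3-fold dilution series from 1 μM. Viability read by CellTiter-Glo luminescence after 72 h. EC50 derived from the curves.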
Turning to `C#Cc1nc(NC(=O)N[C@@H](CO)c2ccc(-c3cccc4ccnc(O)c34)cc2)cs1` [Compound A104, (R)-1-(2-Ethynylthiazol-4-yl)-3-(2-hydroxy-1-(4-(1-hydroxyisoquinolin-8-yl)-phenyl)ethyl)urea], the EC50 is at most 0.2 µM.
The figure for `C#Cc1nc(NC(=O)N[C@@H](CO)c2ccc(-c3cccc(N4CCCC4)n3)cn2)cs1` [Compound A89, (R)-1-(2-Ethynylthiazol-4-yl)-3-(2-hydroxy-1-(6-(pyrrolidin-1-yl)-[2,3′-bipyridin]-6′-yl)ethyl)urea] is at most 0.2 µM.
The figure for `C#Cc1nc(NC(=O)N[C@H](C)c2ccc(-c3cccc4ncsc34)cc2)cs1` [Compound A26, (R)-1-(1-(4-(Benzo[d]thiazol-7-yl)phenyl)ethyl)-3-(2-ethynylthiazol-4-yl)urea] is 0.2 to 1 µM; for `C#Cc1nc(NC(=O)NC(C(=O)NC)c2ccc(-c3cccc4ncsc34)cc2)cs1` (stereo not drawn) [Compound A214, 2-(4-(Benzo[d]thiazol-7-yl)phenyl)-2-(3-(2-ethynylthiazol-4-yl)ureido)-N-methylacetamide] it is at most 0.2 µM; for `C#Cc1nc(NC(=O)N[C@@H](C(=O)NC)c2ccc(-c3cccnc3C3(C#N)CC3)cc2)cs1` [Compound A43, (R)-2-(4-(2-(1-Cyanocyclopropyl)pyridin-3-yl)phenyl)-2-(3-(2-ethynylthiazol-4-yl)ureido)-N-methylacetamide] it is at most 0.2 µM.
The figure for `C#Cc1nc(NC(=O)N[C@@H](CO)c2ccc(C3CCCN(C(C)=O)C3)cc2)cs1` (stereo partly drawn) [Compound A194, 1-((1R)-1-(4-(1-Acetylpiperidin-3-yl)phenyl)-2-hydroxyethyl)-3-(2-ethynyl-thiazol-4-yl)urea] is 0.2 to 1 µM.
Consider `C#Cc1nc(NC(=O)N[C@@H](COC(=O)NC)c2ccc(-c3cccc4ncsc34)cc2)cs1` [Compound A224, (R)-2-(4-(Benzo[d]thiazol-7-yl)phenyl)-2-(3-(2-ethynylthiazol-4-yl)ureido)ethyl methylcarbamate], for which the EC50 was at most 0.2 µM.
In the case of `C#Cc1nc(NC(=O)NCc2ccc(-c3cccc(C4(C#N)CC4)c3)cc2)cs1` [Compound A167, 1-((3′-(1-Cyanocyclopropyl)-[1,1′-biphenyl]-4-yl)methyl)-3-(2-ethynylthiazol-4-yl)urea], the EC50 is at most 0.2 µM.
Regarding `C#Cc1nc(NC(=O)N2CCN(c3ccc(-c4cccc(N5CCCC5)c4)cc3)CC2)cs1` [Compound B15, N-(2-Ethynylthiazol-4-yl)-4-(3′-(pyrrolidin-1-yl)-[1,1′-biphenyl]-4-yl)piperazine-1-carboxamide], the EC50 was at most 0.2 µM.
As for `C#Cc1nc(NC(=O)N[C@@H](CS(N)(=O)=O)c2ccc(-c3cccnc3C3(C#N)CC3)c(Cl)c2)cs1` [Compound A73, (R)-2-(3-Chloro-4-(2-(1-cyanocyclopropyl)pyridin-3-yl)phenyl)-2-(3-(2-ethynyl-thiazol-4-yl)ureido)ethanesulfonamide], the EC50 is at most 0.2 µM.
In the case of `C#Cc1nnc(NC(=O)N[C@@H](COC(N)=O)c2ccc(-c3cccc(N4CCCC4)n3)cn2)s1` [Compound A97, (R)-2-(3-(5-Ethynyl-1,3,4-thiadiazol-2-yl)ureido)-2-(6-(pyrrolidin-1-yl)-[2,3′-bipyridin]-6′-yl)ethyl carbamate] it was at most 0.2 µM; in that of `C#Cc1nc(NC(=O)N[C@@H](CO)c2ccc(C3=CCCCC3)cc2)cs1` [Compound A183, (R)-1-(2-Ethynylthiazol-4-yl)-3-(2-hydroxy-1-(2′,3′,4′,5′-tetrahydro-[1,1′-biphenyl]-4-yl)ethyl)urea], at most 0.2 µM.
The figure for `C#Cc1nc(NC(=O)NCc2ccc(-c3ccccc3C#N)cc2)cs1` [Compound A29, 1-((2′-Cyano-[1,1′-biphenyl]-4-yl)methyl)-3-(2-ethynylthiazol-4-yl)urea] is at most 0.2 µM.
In the case of `C#Cc1nnc(NC(=O)N[C@@H](CO)c2ccc(-c3ccc(F)cc3C3CC3(F)F)cn2)s1` (stereo partly drawn) [Compound A85, 1-((1R)-1-(5-(2-(2,2-Difluorocyclopropyl)-4-fluorophenyl)pyridin-2-yl)-2-hydroxyethyl)-3-(5-ethynyl-1,3,4-thiadiazol-2-yl)urea] it was at most 0.2 µM.
Turning to `C#Cc1nc(NC(=O)N[C@@H](CO)c2ccc(-c3cccnc3N3CC(F)(F)C3)cc2)cs1` [Compound A102, (R)-1-(1-(4-(2-(3,3-Difluoroazetidin-1-yl)pyridin-3-yl)phenyl)-2-hydroxyethyl)-3-(2-ethynylthiazol-4-yl)urea], the EC50 was at most 0.2 µM.
As for `C#Cc1nc(NC(=O)N2CCN(c3ccc(-c4c(C#N)ccc5nc(N)sc45)cc3)CC2)cs1` [Compound B25, 4-(4-(2-Amino-6-cyanobenzo[d]thiazol-7-yl)phenyl)-N-(2-ethynylthiazol-4-yl)-piperazine-1-carboxamide], the EC50 is at most 0.2 µM.
As for `C#Cc1nc(NC(=O)N[C@H](C(N)=O)c2ccc(-c3cccc4ncsc34)cc2)cs1` [Compound A211, (S)-2-(4-(Benzo[d]thiazol-7-yl)phenyl)-2-(3-(2-ethynylthiazol-4-yl)ureido)-acetamide], the EC50 is at most 0.2 µM.
The figure for `C#Cc1ncc(NC(=O)N[C@@H](CO)C(=O)N2CCC3(CCCC3=O)CC2)s1` [Compound A156, (S)-1-(2-Ethynylthiazol-5-yl)-3-(3-hydroxy-1-oxo-1-(1-oxo-8-azaspiro[4.5]decan-8-yl)propan-2-yl)urea] is at most 0.2 µM; for `C#Cc1nc(NC(=O)N[C@@H](CO)c2ccc(C3=C(C#N)CCCC3)cc2)cs1` [Compound A141, (R)-1-(1-(6′-Cyano-2′,3′,4′,5′-tetrahydro-[1,1′-biphenyl]-4-yl)-2-hydroxyethyl)-3-(2-ethynylthiazol-4-yl)urea] it is at most 0.2 µM.
On to `C#Cc1nc(NC(=O)N[C@@H](CO)C(=O)N2CCC3(CCCC3)CC2)cs1` [Compound A154, (S)-1-(2-Ethynylthiazol-4-yl)-3-(3-hydroxy-1-oxo-1-(8-azaspiro[4.5]decan-8-yl)propan-2-yl)urea], for which the EC50 is at most 0.2 µM.
Consider `C#Cc1nc(NC(=O)N[C@@H](CO)c2ccc(-c3ccccc3C3(C#N)CC3)nc2)cs1` [Compound A59, (R)-1-(1-(6-(2-(1-Cyanocyclopropyl)phenyl)pyridin-3-yl)-2-hydroxyethyl)-3-(2-ethynylthiazol-4-yl)urea], for which the EC50 is at most 0.2 µM.
In the case of `C#Cc1nc(NC(=O)N[C@@H](CO)c2ccc(-c3cccc4ncsc34)cn2)cs1` [Compound A114, (R)-1-(1-(5-(Benzo[d]thiazol-7-yl)pyridin-2-yl)-2-hydroxyethyl)-3-(2-ethynyl-thiazol-4-yl)urea] it was at most 0.2 µM; in that of `C#Cc1nc(NC(=O)N[C@@H](CO)c2ccc(-c3cc(F)cnc3C3(C#N)CC3)cc2)cs1` [Compound A64, (R)-1-(1-(4-(2-(1-Cyanocyclopropyl)-5-fluoropyridin-3-yl)phenyl)-2-hydroxy-ethyl)-3-(2-ethynylthiazol-4-yl)urea], at most 0.2 µM.
In the case of `C#Cc1nc(NC(=O)N[C@@H](COC)c2ccc(-c3cccc4ncsc34)cc2)cs1` [Compound A200, (R)-1-(1-(4-(Benzo[d]thiazol-7-yl)phenyl)-2-methoxyethyl)-3-(2-ethynylthiazol-4-yl)urea] it was at most 0.2 µM; in that of `C#Cc1nc(NC(=O)N[C@@H](CO)c2ccc(-c3ccccc3C#N)cn2)cs1` [Compound A45, (R)-1-(1-(5-(2-Cyanophenyl)pyridin-2-yl)-2-hydroxyethyl)-3-(2-ethynylthiazol-4-yl)urea], at most 0.2 µM.
The figure for `C#Cc1nc(NC(=O)N[C@@H](COC(N)=O)c2ccc(-c3ncccc3C#N)cc2)cs1` [Compound A47, (R)-2-(4-(3-Cyanopyridin-2-yl)phenyl)-2-(3-(2-ethynylthiazol-4-yl)ureido)ethyl carbamate] is at most 0.2 µM; for `C#Cc1nccc(NC(=O)N[C@@H](CO)c2ccc(-c3cccc4ncsc34)cc2)n1` [Compound A241, (R)-1-(1-(4-(Benzo[d]thiazol-7-yl)phenyl)-2-hydroxyethyl)-3-(2-ethynyl-pyrimidin-4-yl)urea] it is at most 0.2 µM.
Consider `C#Cc1nc(NC(=O)N[C@@H](CO)c2ccc(-c3ccc(F)cc3C3(C#N)CC3)cn2)cs1` [Compound A75, (R)-1-(1-(5-(2-(1-Cyanocyclopropyl)-4-fluorophenyl)pyridin-2-yl)-2-hydroxy-ethyl)-3-(2-ethynylthiazol-4-yl)urea], for which the EC50 was at most 0.2 µM.
The figure for `C#Cc1nc(NC(=O)N[C@@H](COC(N)=O)c2ccc(-c3cccc4ncccc34)cc2)cs1` [Compound A230, (R)-2-(3-(2-Ethynylthiazol-4-yl)ureido)-2-(4-(quinolin-5-yl)phenyl)ethyl carbamate] is at most 0.2 µM; for `C#Cc1nc(NC(=O)N[C@@H](C(=O)NC)c2ccc(-c3cccc(C4(C#N)CC4)c3)cc2)cs1` [Compound A217, (R)-2-(3′-(1-Cyanocyclopropyl)-[1,1′-biphenyl]-4-yl)-2-(3-(2-ethynylthiazol-4-yl)ureido)-N-methylacetamide] it is at most 0.2 µM.
The figure for `C#Cc1nc(NC(=O)N[C@@H](CO)c2ccc(-c3cccc(S(C)(=O)=O)c3)cc2)cs1` [Compound A186, (R)-1-(2-Ethynylthiazol-4-yl)-3-(2-hydroxy-1-(3′-(methylsulfonyl)-[1,1′-biphenyl]-4-yl)ethyl)urea] is at most 0.2 µM; for `C#Cc1nc(NC(=O)N(CCO)Cc2ccc(-c3cccc4ncsc34)cc2)cs1` [Compound A206, 1-(4-(Benzo[d]thiazol-7-yl)benzyl)-3-(2-ethynylthiazol-4-yl)-1-(2-hydroxyethyl)-urea] it is at most 0.2 µM.
The figure for `C#Cc1nc(NC(=O)N(C)[C@@H](COC(N)=O)c2ccc(-c3cccnc3C3(C#N)CC3)c(Cl)c2)cs1` [Compound A70, (R)-2-(3-Chloro-4-(2-(1-cyanocyclopropyl)pyridin-3-yl)phenyl)-2-(3-(2-ethynyl-thiazol-4-yl)-1-methylureido)ethyl carbamate] is at most 0.2 µM.
